Measurements: patent publication US9334246B2, “Substituted triazines for malaria treatment and chemoprophylaxis” (The United States of America, as represented by the …, priority 2013, dated 2016)

Tests used:
Format in all cases: cell-based, Plasmodium falciparum
[1] = test system: P. falciparum W2; experiment: Malaria SYBR Green Fluorescence Assay, W2 strain; settings: for W2: SYBR Green Assay
[2] = test system: P. falciparum C235; experiment: Malaria SYBR Green Fluorescence Assay, C235 strain; settings: for C235: SYBR Green Assay
[3] = test system: P. falciparum D6; experiment: Malaria SYBR Green Fluorescence Assay, D6 strain; settings: for D6: SYBR Green Assay

Compound	W2 (SYBR Green Assay IC50) [1]	C235 (SYBR Green Assay IC50) [2]	D6 (SYBR Green Assay IC50) [3]	W2 [1]	C235 [2]	D6 [3]
COc1ccc(-c2nc(N3CCCN(CCO)CC3)nc(C(Cl)(Cl)Cl)n2)c2ccccc12 [Cmpd 463]	0.201 µg/mL	0.306 µg/mL	0.355 µg/mL			
COc1ccc(-c2nc(NCC3CCN(C)CC3)nc(C(Cl)(Cl)Cl)n2)c2ccccc12 [Cmpd 517]	0.007 µg/mL	0.012 µg/mL	0.023 µg/mL			
OCCN1CCCN(c2nc(-c3ccc(Cl)cc3)nc(C(Cl)(Cl)Cl)n2)CC1 [Cmpd 455]	0.065 µg/mL	0.118 µg/mL	0.214 µg/mL			
CCC(N)(CC)CNc1nc(-c2ccc(F)cc2)nc(C(Cl)(Cl)Cl)n1 [Cmpd 359]	0.051 µg/mL	0.095 µg/mL	0.045 µg/mL			
CN1CCN(c2nc(-c3ccccc3[N+](=O)[O-])nc(C(Cl)(Cl)Cl)n2)CC1 [Cmpd 549]	0.236 µg/mL	0.663 µg/mL	0.503 µg/mL			
NC1CCN(c2nc(-c3cccc(C(F)(F)F)c3)nc(C(Cl)(Cl)Cl)n2)CC1 [Compound 625, NC1CCN(CC1)C1═NC(═NC(═N1)C1═CC═CC(═C1)C(F)(F)F)C(Cl)(Cl)Cl]	0.012 µg/mL	0.02 µg/mL	0.047 µg/mL			
CCN1CCC(CNc2nc(-c3cccc(Cl)c3)nc(C(Cl)(Cl)Cl)n2)CC1 [Cmpd 339]				14 ng/mL	41 ng/mL	34 ng/mL
CN1CCN(c2nc(-c3ccc(S(C)(=O)=O)cc3)nc(C(Cl)(Cl)Cl)n2)CC1 [Cmpd 54]				356 ng/mL	632 ng/mL	432 ng/mL
CC(C)(N)CNc1nc(-c2ccc(Cl)cc2)nc(C(Cl)(Cl)Cl)n1 [Cmpd 284]				3 ng/mL	18 ng/mL	12 ng/mL
CSc1ccc(cc1)c2nc(nc(n2)C(Cl)(Cl)Cl)N3CC4CC3CN4C(═O)OC(C)(C)C [Compound 710]				281 ng/mL	571 ng/mL	145 ng/mL
Cc1ccc(-c2ccccc2-c2nc(NCCN3CCCC3)nc(C(Cl)(Cl)Cl)n2)cc1 [Cmpd 266]				474 ng/mL	530 ng/mL	654 ng/mL
CCN(CC)CCNc1nc(-c2ccc(OC)cc2)nc(C(Cl)(Cl)Cl)n1 [Cmpd 268]				259 ng/mL	282 ng/mL	309 ng/mL
CC1═CC═C(C═C1)C1═NC(═NC(═N1)C(Cl)(Cl)Cl)N1CCC(N)CC1 [Compound 623]	0.021 µg/mL	0.032 µg/mL	0.058 µg/mL			
Cc1ccc(-c2nc(N3CCCN(C)CC3)nc(C(Cl)(Cl)Cl)n2)cc1 [Cmpd 112]				107 ng/mL	209 ng/mL	168 ng/mL
CC(C)(C)c1ccc(-c2nc(NCCc3cccnc3)nc(C(Cl)(Cl)Cl)n2)cc1 [Cmpd 175]				54 ng/mL	165 ng/mL	110 ng/mL
COc1cc(OC)cc(-c2nc(N3CCC(N)CC3)nc(C(Cl)(Cl)Cl)n2)c1 [Compound 635, COC1═CC(═CC(OC)═C1)C1═NC(═NC(═N1)C(Cl)(Cl)Cl)N1CCC(N)CC1]	0.135 µg/mL	0.218 µg/mL	0.259 µg/mL			
Cc1ccc(-c2ccccc2-c2nc(NCCCN(C)C)nc(C(Cl)(Cl)Cl)n2)cc1 [Cmpd 446]	0.223 µg/mL	0.535 µg/mL	0.482 µg/mL			
CCN1CCC(CNc2nc(-c3ccc(C)cc3)nc(C(Cl)(Cl)Cl)n2)CC1 [Cmpd 265]				714 ng/mL	672 ng/mL	803 ng/mL
CSc1ccc(-c2nc(NCC3(N)CCCCC3)nc(C(Cl)(Cl)Cl)n2)cc1 [Compound 664, CSC1═CC═C(C═C1)C1═NC(NCC2(N)CCCCC2)═NC(═N1)C(Cl)(Cl)Cl]				21 ng/mL	47 ng/mL	18 ng/mL
